Where two headings read alike, the source gives them in different places.
What was measured:
hNav1.7 = hNav1.7 (Homo sapiens, UniProt Q15858); assay: cell-based; format: cell-based; details: for IC50: PatchXpress, read-out: PX hNav1.7 Tonic IC50
hNav1.4 = hNav1.4 (Homo sapiens, UniProt P35499); assay: cell-based; format: cell-based; details: for IC50: PatchXpress, read-out: PX hNav1.4 Tonic IC50; for Nav1.4/Nav1.7: ratio of PX tonic IC50 values
Sequence of hNav1.4 (P35499 whole entry): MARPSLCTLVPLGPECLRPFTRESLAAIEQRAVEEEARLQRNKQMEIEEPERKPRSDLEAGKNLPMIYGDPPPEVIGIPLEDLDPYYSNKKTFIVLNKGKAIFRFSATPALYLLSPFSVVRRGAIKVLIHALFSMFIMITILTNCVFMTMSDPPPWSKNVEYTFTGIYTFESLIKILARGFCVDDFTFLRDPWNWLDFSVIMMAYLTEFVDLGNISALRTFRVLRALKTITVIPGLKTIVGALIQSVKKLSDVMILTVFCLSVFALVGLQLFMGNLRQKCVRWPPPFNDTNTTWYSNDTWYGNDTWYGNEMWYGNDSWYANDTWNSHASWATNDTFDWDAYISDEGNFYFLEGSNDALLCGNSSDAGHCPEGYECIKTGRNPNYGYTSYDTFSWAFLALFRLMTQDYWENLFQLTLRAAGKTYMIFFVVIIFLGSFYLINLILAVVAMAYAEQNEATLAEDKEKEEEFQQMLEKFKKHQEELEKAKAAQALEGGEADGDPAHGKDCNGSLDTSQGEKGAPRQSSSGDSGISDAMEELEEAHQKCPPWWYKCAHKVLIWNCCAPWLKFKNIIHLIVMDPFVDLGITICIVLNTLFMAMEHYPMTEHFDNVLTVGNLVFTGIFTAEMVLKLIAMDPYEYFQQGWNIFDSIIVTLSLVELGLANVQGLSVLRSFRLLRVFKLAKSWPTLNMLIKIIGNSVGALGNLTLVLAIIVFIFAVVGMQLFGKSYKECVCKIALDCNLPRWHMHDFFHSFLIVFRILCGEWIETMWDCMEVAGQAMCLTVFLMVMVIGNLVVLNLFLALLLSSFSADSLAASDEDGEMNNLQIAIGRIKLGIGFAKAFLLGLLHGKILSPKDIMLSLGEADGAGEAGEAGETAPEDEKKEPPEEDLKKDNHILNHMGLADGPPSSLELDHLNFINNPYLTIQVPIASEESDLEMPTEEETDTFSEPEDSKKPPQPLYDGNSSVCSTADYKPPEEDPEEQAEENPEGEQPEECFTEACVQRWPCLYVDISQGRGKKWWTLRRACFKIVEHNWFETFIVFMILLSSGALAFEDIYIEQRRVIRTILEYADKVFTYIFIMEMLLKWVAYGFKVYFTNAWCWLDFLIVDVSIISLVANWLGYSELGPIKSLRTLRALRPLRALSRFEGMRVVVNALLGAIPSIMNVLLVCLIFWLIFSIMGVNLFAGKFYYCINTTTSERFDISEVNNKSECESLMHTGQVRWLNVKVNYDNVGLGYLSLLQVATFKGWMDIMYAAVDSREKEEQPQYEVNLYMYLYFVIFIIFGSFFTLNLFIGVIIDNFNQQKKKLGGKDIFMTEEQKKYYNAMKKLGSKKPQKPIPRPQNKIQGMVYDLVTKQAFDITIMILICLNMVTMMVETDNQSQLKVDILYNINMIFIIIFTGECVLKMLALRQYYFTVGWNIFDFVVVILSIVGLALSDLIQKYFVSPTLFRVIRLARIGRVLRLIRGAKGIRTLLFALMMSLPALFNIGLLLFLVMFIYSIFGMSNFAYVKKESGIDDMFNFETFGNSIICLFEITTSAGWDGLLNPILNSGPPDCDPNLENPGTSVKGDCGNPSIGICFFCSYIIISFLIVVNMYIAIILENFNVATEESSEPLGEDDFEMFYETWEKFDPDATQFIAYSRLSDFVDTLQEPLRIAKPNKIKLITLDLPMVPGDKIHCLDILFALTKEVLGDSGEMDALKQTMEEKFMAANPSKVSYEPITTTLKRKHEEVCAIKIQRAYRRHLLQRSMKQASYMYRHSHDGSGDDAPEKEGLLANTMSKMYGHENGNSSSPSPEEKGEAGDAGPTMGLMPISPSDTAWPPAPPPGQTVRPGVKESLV

Sequence of hNav1.7 (Q15858 whole entry): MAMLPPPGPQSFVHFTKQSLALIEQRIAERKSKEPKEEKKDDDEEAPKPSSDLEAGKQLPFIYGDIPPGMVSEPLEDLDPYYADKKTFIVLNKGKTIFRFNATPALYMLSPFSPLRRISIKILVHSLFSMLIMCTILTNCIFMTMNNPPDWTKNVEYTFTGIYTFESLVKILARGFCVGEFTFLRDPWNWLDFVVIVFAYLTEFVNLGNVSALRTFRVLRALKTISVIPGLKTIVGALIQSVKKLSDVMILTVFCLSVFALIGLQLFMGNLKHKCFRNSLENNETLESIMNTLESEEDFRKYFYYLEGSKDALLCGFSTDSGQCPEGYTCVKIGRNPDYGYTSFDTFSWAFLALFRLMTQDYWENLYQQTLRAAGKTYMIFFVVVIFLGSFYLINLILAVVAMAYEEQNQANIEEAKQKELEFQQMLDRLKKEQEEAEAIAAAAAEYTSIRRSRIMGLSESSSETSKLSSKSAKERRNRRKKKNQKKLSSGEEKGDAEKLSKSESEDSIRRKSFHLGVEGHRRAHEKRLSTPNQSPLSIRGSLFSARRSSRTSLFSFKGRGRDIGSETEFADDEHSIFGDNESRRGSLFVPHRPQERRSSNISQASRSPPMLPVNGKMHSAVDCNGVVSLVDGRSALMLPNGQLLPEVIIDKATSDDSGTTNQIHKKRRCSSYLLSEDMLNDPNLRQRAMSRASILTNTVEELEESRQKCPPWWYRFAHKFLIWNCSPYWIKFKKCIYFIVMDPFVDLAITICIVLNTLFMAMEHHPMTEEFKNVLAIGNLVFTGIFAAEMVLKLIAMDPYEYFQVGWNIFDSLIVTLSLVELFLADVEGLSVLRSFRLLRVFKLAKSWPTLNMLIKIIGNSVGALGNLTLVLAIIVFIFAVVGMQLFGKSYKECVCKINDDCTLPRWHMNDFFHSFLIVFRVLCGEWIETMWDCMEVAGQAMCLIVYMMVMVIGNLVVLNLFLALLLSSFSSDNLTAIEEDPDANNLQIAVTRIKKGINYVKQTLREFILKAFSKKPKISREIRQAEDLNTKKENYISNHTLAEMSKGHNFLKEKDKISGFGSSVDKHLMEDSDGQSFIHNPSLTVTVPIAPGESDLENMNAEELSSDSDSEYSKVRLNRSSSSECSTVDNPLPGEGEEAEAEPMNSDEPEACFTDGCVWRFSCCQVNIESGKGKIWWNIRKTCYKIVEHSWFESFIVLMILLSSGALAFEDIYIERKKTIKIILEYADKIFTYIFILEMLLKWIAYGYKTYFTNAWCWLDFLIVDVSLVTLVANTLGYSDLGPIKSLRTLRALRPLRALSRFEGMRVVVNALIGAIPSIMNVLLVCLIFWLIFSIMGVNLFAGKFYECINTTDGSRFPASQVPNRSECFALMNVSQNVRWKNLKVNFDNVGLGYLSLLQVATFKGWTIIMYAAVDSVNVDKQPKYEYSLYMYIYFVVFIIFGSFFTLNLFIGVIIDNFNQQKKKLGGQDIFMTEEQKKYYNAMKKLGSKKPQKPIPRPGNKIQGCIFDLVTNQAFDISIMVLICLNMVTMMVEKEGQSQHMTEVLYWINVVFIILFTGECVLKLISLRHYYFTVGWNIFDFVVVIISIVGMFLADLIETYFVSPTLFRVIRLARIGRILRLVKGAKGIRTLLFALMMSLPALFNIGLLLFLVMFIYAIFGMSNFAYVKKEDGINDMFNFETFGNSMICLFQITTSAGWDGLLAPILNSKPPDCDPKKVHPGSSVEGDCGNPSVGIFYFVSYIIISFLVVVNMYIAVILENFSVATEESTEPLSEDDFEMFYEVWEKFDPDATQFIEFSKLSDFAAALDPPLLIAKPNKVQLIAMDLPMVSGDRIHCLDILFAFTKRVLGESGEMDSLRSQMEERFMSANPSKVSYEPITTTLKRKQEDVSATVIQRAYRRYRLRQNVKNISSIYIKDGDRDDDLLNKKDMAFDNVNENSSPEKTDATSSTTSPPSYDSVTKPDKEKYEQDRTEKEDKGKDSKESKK

SMILES | IC50 (hNav1.7; Table 12, tonic block) | IC50 (hNav1.4; Table 12, tonic block) | Nav1.4/Nav1.7 (hNav1.4; Table 12) | IC50 (hNav1.7; tonic, Table 11) | Nav1.4/Nav1.7 (hNav1.7; ratio of PX tonic IC50 values, Table 11) | IC50 (hNav1.4; tonic, Table 11)
C#CC[C@@H]1NC(=O)[C@@H]2CSSC[C@H](NC(=O)[C@H](Cc3ccc(O)cc3)NC(=O)[C@@H](N)CC#N)C(=O)N[C@@H](CCC(N)=O)C(=O)N[C@@H](CCCCN)C(=O)N[C@@H](Cc3c[nH]c4ccccc34)C(=O)N[C@@H](CCCC)C(=O)N[C@@H](Cc3c[nH]c4ccccc34)C(=O)N[C@@H]([C@@H](C)O)C(=O)N[C@H]3CSSC[C@H](NC(=O)[C@H](CCCNC(=N)N)NC(=O)[C@H](CC(C)C)NC(=O)CNC1=O)C(=O)N[C@@H](CCCCN)C(=O)N[C@@H](CC(C)C)C(=O)N[C@@H](Cc1c[nH]c4ccccc14)C(=O)N[C@H](C(=O)N[C@@H](CCCNC(=N)N)C(=O)N[C@@H](CCCCN)C(=O)N[C@@H](CCC(=O)O)C(=O)N[C@@H](Cc1c[nH]c4ccccc14)C(N)=O)CSSC[C@H](NC(=O)[C@H](C)NC(=O)[C@H](CCCNC(=N)N)NC(=O)[C@H](CCCCN)NC(=O)[C@H](CO)NC(=O)[C@H](CC(=O)O)NC3=O)C(=O)N2 [compound 452] | 2.51 nM | 64.6 nM | 26 | – | – | –
CC[C@H](C)[C@H](NC(=O)[C@@H](NC(=O)[C@H](CCCCN)NC(=O)[C@H](CCCNC(=N)N)NC(=O)[C@@H]1CSSC[C@@H]2NC(=O)[C@H](C)NC(=O)[C@H](CCCNC(=N)N)NC(=O)[C@H](CCC(=O)O)NC(=O)[C@H](CO)NC(=O)[C@H](CC(=O)O)NC(=O)[C@@H]3CSSC[C@H](NC(=O)[C@H](CCCNC(=N)N)NC(=O)[C@H](CC(C)C)NC(=O)CNC(=O)[C@H](CCC(=O)O)NC(=O)[C@H](CSSC[C@H](NC(=O)[C@@H](N)Cc4ccc(O)cc4)C(=O)N[C@@H](CCC(N)=O)C(=O)N[C@@H](CCCCN)C(=O)N[C@@H](Cc4c[nH]c5ccccc45)C(=O)N[C@@H](CCSC)C(=O)N[C@@H](Cc4c[nH]c5ccccc45)C(=O)N[C@@H]([C@@H](C)O)C(=O)N3)NC2=O)C(=O)N[C@@H](CCCCN)C(=O)N[C@@H](CC(C)C)C(=O)N[C@@H](Cc2c[nH]c3ccccc23)C(=O)N1)[C@@H](C)CC)C(N)=O [compound 58] | – | – | – | 0.904 nM | 48 | 43.2 nM
C#CC[C@H](N)C(=O)N[C@@H](Cc1ccc(O)cc1)C(=O)N[C@H]1CSSC[C@@H]2NC(=O)[C@@H]3CSSC[C@@H](C(=O)N[C@@H](CCCNC(=N)N)C(=O)N[C@@H](CCCCN)C(=O)N[C@@H](CCC(=O)O)C(=O)N[C@H](C(N)=O)[C@@H](C)CC)NC(=O)[C@H](Cc4c[nH]c5ccccc45)NC(=O)[C@H](CC(C)C)NC(=O)[C@H](CCCCN)NC(=O)[C@H](CSSC[C@H](NC(=O)[C@H]([C@@H](C)O)NC(=O)[C@H](Cc4c[nH]c5ccccc45)NC(=O)[C@H](CCCC)NC(=O)[C@H](CCc4ccc(Br)cc4)NC(=O)[C@H](CCCCN)NC(=O)[C@H](CCC(N)=O)NC1=O)C(=O)N[C@@H](CC(=O)O)C(=O)N[C@@H](CO)C(=O)N[C@@H](CCCCN)C(=O)N[C@@H](CCCNC(=N)N)C(=O)N[C@@H](C)C(=O)N3)NC(=O)[C@H](CCCNC(=N)N)NC(=O)[C@H](CC(C)C)NC(=O)CNC(=O)[C@H](CCC(=O)O)NC2=O [compound 1603] | 0.23 nM | 47.9 nM | 207 | – | – | –
C#CC[C@@H]1NC(=O)[C@@H]2CSSC[C@H](NC(=O)[C@H](Cc3ccc(O)cc3)NC(=O)[C@@H](N)CC#N)C(=O)N[C@@H](CCC(N)=O)C(=O)N[C@@H](CCCCN)C(=O)N[C@@H](Cc3c[nH]c4ccccc34)C(=O)N[C@@H](CCCC)C(=O)N[C@@H](Cc3c[nH]c4ccccc34)C(=O)N[C@@H]([C@@H](C)O)C(=O)N[C@H]3CSSC[C@H](NC(=O)[C@H](CCC(=O)O)NC(=O)[C@H](CC(C)C)NC(=O)CNC1=O)C(=O)N[C@@H](CCCCN)C(=O)N[C@@H](CC(C)C)C(=O)N[C@@H](Cc1c[nH]c4ccccc14)C(=O)N[C@H](C(=O)N[C@@H](CCCNC(=N)N)C(=O)N[C@@H](CCCCN)C(=O)N[C@H](C(=O)N[C@H](C(N)=O)[C@@H](C)CC)[C@@H](C)CC)CSSC[C@H](NC(=O)[C@H](C)NC(=O)[C@H](CCCNC(=N)N)NC(=O)[C@H](CCCCN)NC(=O)[C@H](CO)NC(=O)[C@H](CC(=O)O)NC3=O)C(=O)N2 [compound 396] | 2.84 nM | 278 nM | 98 | – | – | –
C#CC[C@H](N)C(=O)N[C@@H](Cc1ccc(O)cc1)C(=O)N[C@H]1CSSC[C@@H]2NC(=O)[C@@H]3CSSC[C@@H](C(=O)N[C@@H](CCCNC(=N)N)C(=O)N[C@@H](CCCCN)C(=O)N[C@H](C(=O)N[C@H](C(N)=O)[C@@H](C)CC)[C@@H](C)CC)NC(=O)[C@H](Cc4c[nH]c5ccc(Br)cc45)NC(=O)[C@H](CC(C)C)NC(=O)[C@H](CCCCN)NC(=O)[C@H](CSSC[C@H](NC(=O)[C@H]([C@@H](C)O)NC(=O)[C@H](Cc4c[nH]c5ccccc45)NC(=O)[C@H](CCCC)NC(=O)[C@H](Cc4c[nH]c5ccccc45)NC(=O)[C@H](CCCCN)NC(=O)[C@H](CCC(N)=O)NC1=O)C(=O)N[C@@H](CC(=O)O)C(=O)N[C@@H](CO)C(=O)N[C@@H](CCCCN)C(=O)N[C@@H](CCCNC(=N)N)C(=O)N[C@@H](C)C(=O)N3)NC(=O)[C@H](CCCNC(=N)N)NC(=O)[C@H](CC(C)C)NC(=O)CNC(=O)[C@H](CCC(=O)O)NC2=O [compound 871] | 1.66 nM | 11 nM | 7 | – | – | –
C#CC[C@H](N)C(=O)N[C@@H](Cc1ccc(O)cc1)C(=O)N[C@H]1CSSC[C@@H]2NC(=O)[C@@H]3CSSC[C@@H](C(=O)N[C@@H](CCCNC(=N)N)C(=O)N[C@@H](CCCCN)C(=O)N[C@@H](CCC(=O)O)C(=O)N[C@H](C(N)=O)[C@@H](C)CC)NC(=O)[C@H](Cc4c[nH]c5ccccc45)NC(=O)[C@H](C4CCCCC4)NC(=O)[C@H](CCCCN)NC(=O)[C@H](CSSC[C@H](NC(=O)[C@H]([C@@H](C)O)NC(=O)[C@H](Cc4c[nH]c5ccccc45)NC(=O)[C@H](CCCC)NC(=O)[C@H](Cc4c[nH]c5ccccc45)NC(=O)[C@H](CCCCN)NC(=O)[C@H](CCC(N)=O)NC1=O)C(=O)N[C@@H](CC(=O)O)C(=O)N[C@@H](CO)C(=O)N[C@@H](CCCCN)C(=O)N[C@@H](CCCNC(=N)N)C(=O)N[C@@H](C)C(=O)N3)NC(=O)[C@H](CCCNC(=N)N)NC(=O)[C@H](CC(C)C)NC(=O)CNC(=O)[C@H](CCC(=O)O)NC2=O [compound 859] | 0.489 nM | 177 nM | 361 | – | – | –
C#CC[C@@H]1NC(=O)[C@@H]2CSSC[C@H](NC(=O)[C@H](Cc3ccc(O)cc3)NC(=O)[C@@H](N)CC#N)C(=O)N[C@@H](CCC(N)=O)C(=O)N[C@@H](CCCCN)C(=O)N[C@@H](Cc3c[nH]c4ccccc34)C(=O)N[C@@H](CCCC)C(=O)N[C@@H](Cc3c[nH]c4ccccc34)C(=O)N[C@@H]([C@@H](C)O)C(=O)N[C@H]3CSSC[C@H](NC(=O)[C@H](CCCNC(=N)N)NC(=O)[C@H](CC(C)C)NC(=O)CNC1=O)C(=O)N[C@@H](CCCCN)C(=O)N[C@@H](CC(C)C)C(=O)N[C@@H](Cc1c[nH]c4ccc(C)cc14)C(=O)N[C@H](C(=O)N[C@@H](CCCNC(=N)N)C(=O)N[C@@H](CCCCN)C(=O)N[C@@H](CCC(=O)O)C(=O)N[C@H](C(N)=O)[C@@H](C)CC)CSSC[C@H](NC(=O)[C@H](C)NC(=O)[C@H](CCCNC(=N)N)NC(=O)[C@H](CCCCN)NC(=O)[C@H](CO)NC(=O)[C@H](CC(=O)O)NC3=O)C(=O)N2 [compound 1662] | 0.52 nM | 89.8 nM | 172 | – | – | –
C#CC[C@H](N)C(=O)N[C@@H](CCC(=O)O)C(=O)N[C@H]1CSSC[C@@H]2NC(=O)[C@@H]3CSSC[C@@H](C(=O)N[C@@H](CCCNC(=N)N)C(=O)N[C@@H](CCCCN)C(=O)N[C@@H](CCC(=O)O)C(=O)N[C@H](C(N)=O)[C@@H](C)CC)NC(=O)[C@H](Cc4c[nH]c5ccccc45)NC(=O)[C@H](CC(C)C)NC(=O)[C@H](CCCCN)NC(=O)[C@H](CSSC[C@H](NC(=O)[C@H]([C@@H](C)O)NC(=O)[C@H](Cc4c[nH]c5ccccc45)NC(=O)[C@H](CCCC)NC(=O)[C@H](Cc4c[nH]c5ccccc45)NC(=O)[C@H](CCCCN)NC(=O)[C@H](CCC(N)=O)NC1=O)C(=O)N[C@@H](CC(=O)O)C(=O)N[C@@H](CCC(=O)O)C(=O)N[C@@H](CCCCN)C(=O)N[C@@H](CCCNC(=N)N)C(=O)N[C@@H](CCC(=O)O)C(=O)N3)NC(=O)[C@H](CCCNC(=N)N)NC(=O)[C@H](CC(C)C)NC(=O)CNC(=O)[C@H](CCC(=O)O)NC2=O [compound 751] | 10.2 nM | 1920 nM | 189 | – | – | –
C#CC[C@@H]1NC(=O)[C@@H]2CSSC[C@H](NC(=O)[C@@H](N)CC#N)C(=O)N[C@@H](CCC(N)=O)C(=O)N[C@@H](CCCCN)C(=O)N[C@@H](Cc3c[nH]c4ccccc34)C(=O)N[C@@H](CCCC)C(=O)N[C@@H](Cc3c[nH]c4ccccc34)C(=O)N[C@@H]([C@@H](C)O)C(=O)N[C@H]3CSSC[C@H](NC(=O)[C@H](CCCNC(=N)N)NC(=O)[C@H](CC(C)C)NC(=O)CNC1=O)C(=O)N[C@@H](CCCCN)C(=O)N[C@@H](CC(C)C)C(=O)N[C@@H](Cc1c[nH]c4ccccc14)C(=O)N[C@H](C(=O)N[C@@H](CCCNC(=N)N)C(=O)N[C@@H](CCCCN)C(=O)N[C@@H](CCC(=O)O)C(=O)N[C@H](C(N)=O)[C@@H](C)CC)CSSC[C@H](NC(=O)[C@H](C)NC(=O)[C@H](CCCNC(=N)N)NC(=O)[C@H](CCCCN)NC(=O)[C@H](CCC(=O)O)NC(=O)[C@H](CC(=O)O)NC3=O)C(=O)N2 [compound 1672] | 2.87 nM | 457 nM | 159 | – | – | –
C#CC[C@H](N)C(=O)N[C@@H](Cc1ccc(O)cc1)C(=O)N[C@H]1CSSC[C@@H]2NC(=O)[C@@H]3CSSC[C@@H](C(=O)N[C@@H](CCCNC(=N)N)C(=O)N[C@@H](CCCCN)C(=O)N[C@@H](CCC(=O)O)C(=O)N[C@H](C(N)=O)[C@@H](C)CC)NC(=O)[C@H](Cc4c[nH]c5ccccc45)NC(=O)[C@H](CC4CCCCC4)NC(=O)[C@H](CCCCN)NC(=O)[C@H](CSSC[C@H](NC(=O)[C@H]([C@@H](C)O)NC(=O)[C@H](Cc4c[nH]c5ccccc45)NC(=O)[C@H](CCCC)NC(=O)[C@H](Cc4c[nH]c5ccccc45)NC(=O)[C@H](CCCCN)NC(=O)[C@H](CCC(N)=O)NC1=O)C(=O)N[C@@H](CC(=O)O)C(=O)N[C@@H](CO)C(=O)N[C@@H](CCCCN)C(=O)N[C@@H](CCCNC(=N)N)C(=O)N[C@@H](C)C(=O)N3)NC(=O)[C@H](CCCNC(=N)N)NC(=O)[C@H](CC(C)C)NC(=O)CNC(=O)[C@H](CCC(=O)O)NC2=O [compound 860] | 1.61 nM | 117 nM | 73 | – | – | –

— patent US10344060B2 (priority 2013, dated 2019)
